Results taken from patent US8304238B2, “Cell culture medium and immobilized preparation of cell adhesion protein or peptide” (Nat'l Institute for Environmental Studies, priority 2003, dated 2012).
Each block holds one molecule with its values, some of them ahead of it. Where no end group is shown, it is not given here. [ ]: non-standard residue; d: D form. Nle = CCCC[C@H](N)C(=O)O

Columns and labels:
[1] = tested on: alveolar type II epithelial cells (T2 cells); assay: Adhesion of T2 cells to pseudomatrices dissolved in 50% ethanol and air-dried/immobilized, and competitive inhibition by free peptide; assay type: cell-based; details: for Adhesion of T2 cells to pseudomatrix compared with coated FN: 50% ethanol, air-dried, 0.1-1.0 μg/well, 24 hours serum-free
Description: 50 μl of 2-20 μg/ml MAST-GRGDSP (Gly-Arg-Gly-Asp-Ser-Pro) (SEQ ID NO: 22) and MMAC-GRGDSP (SEQ ID NO: 22) dissolved in 50% ethanol were poured into wells, and air-dried/immobilized. Next, the wells to which MAST-GRGDSP (SEQ ID NO: 22) and MMAC-GRGDSP (SEQ ID NO: 22) (0.1-1.0 μg/well) were coated were rinsed with the serum-free DMEM medium. T2 cells suspended in the medium at the concentration of 6×10^4 cells/100 μl were seeded, and cultured in a CO2 incubator at 37° C. for 24 hours. Then, the cells were fixed with methanol, stained, and measured its absorbance according to the method in Example 7. A culture wherein FN was coated as a standard material was conducted simultaneously. The cell adhesion on FN was shown as a standard (100%).
In the same manner as in Example 18, MAST-GRGDSP (SEQ ID NO: 22) was dissolved in 50% ethanol, air-dried/immobilized on wells, and T2 cells were seeded/cultured thereon. Separately, just before the cells were seeded, 0.25-4.0 mg/ml of free GRGDSP (SEQ ID NO: 22) peptide was added to the cell suspension, and the culture and the subsequent measurement of absorbance were conducted in the same manner as described above. […] Further, when the applied amount of MAST-GRGDSP (SEQ ID NO: 22) was decreased, the immobilized amount of GRGDSP (SEQ ID NO: 22) decreased, and the competitive inhibition by free GRGDSP (SEQ ID NO: 22) peptide worked more effectively.
(§1) In the same manner as in Example 18, MMAC-GRGDSP (SEQ ID NO: 22) was dissolved in 50% ethanol, air-dried/immobilized on wells, and T2 cells were seeded/cultured thereon. Separately, just before the cells were seeded, 0.25-4.0 mg/ml of free GRGDSP (SEQ ID NO: 22) peptide was added to the cell suspension, and the culture and the subsequent measurement of absorbance were conducted in the same manner as described above.
as §1, with “MBAC/MAST-AG73 and -FIB-1 were” for “MMAC-GRGDSP (SEQ ID NO: 22) was”, “0.25” for “0.25-4.0”, “AG73 or FIB-1” for “GRGDSP (SEQ ID NO: 22)”

[2] = tested on: alveolar type II epithelial cells (T2 cells); assay: Inhibition of T2 cell adhesion by anti-FIB-1 antibody after MBAC/MAST-FIB-1 in 50% ethanol is air-dried/immobilized; assay type: cell-based; details: 4 μg/ml antibody 4 hours; FIB-1 concentration 0.1-0.25 μg/well
Description: In the same manner as in Example 21, MBAC/MAST-FIB-1 was diluted with 50% ethanol, poured into wells, and air-dried/immobilized. Before T2 cells were seeded, 100 μl of 4 μg/ml anti-FIB-1 polyclonal antibody was poured into the well, and incubated for 4 hours to allow the antibody to bind to the immobilized FIB-1 peptide. Controls were treated with normal IgG. T2 cells were cultured, fixed, and stained in the same manner as in Example 21.

[3] = tested on: alveolar type II epithelial cells (T2 cells); assay: Inhibition of T2 cell adhesion to immobilized pseudomatrix by treatment with polyclonal antibodies for the peptides; assay type: cell-based; details: for Inhibition of cell adhesion by anti-FIB-1 antibody: immobilized at 1 μg/ml; for Cell adhesion ability of immobilized pseudomatrix compared with coated FN: MBAC-peptide 1-10 μg/ml in DMEM; for Inhibition of cell adhesion by treatment with antibodies for the peptides: antibodies 4-10 μg/ml, 2-4 hours
Description: (§2) Each pseudomatrix prepared in Example 13 to which cell adhesion peptide was bound (MBAC-peptide) was diluted in DMEM medium to the concentration of 1-10 μg/ml, poured into a 96-well by 100 μl each, and left still overnight in a CO2 incubator to be adsorbed and immobilized on the wells. Non-adsorbed MBAC-peptides were removed by rinsing well with DMEM medium. Next, 100 μl of antibodies diluted with serum-free DMEM to the concentration of 4-10 μg/ml was poured into a well, incubated for 2-4 hours to let the antibodies bind to the peptides. Normal IgG was used for control groups. Antibodies were removed after the treatment, T2 cells suspended at the concentration of 6×10^5 cells/ml were seeded by 100 μl each. After 1-day serum-free culture, T2 cells were fixed with 100 μl of methanol for 5 minutes, and stained with 50 μl of 0.4% crystal violet for 30 minutes. Excessive staining was washed with water, and the number of adhering cells was counted based on the absorbance of cytoplasm (A595).

[4] = tested on: alveolar type II epithelial cells (T2 cells); assay: Adhesion of T2 cells to pseudomatrix adsorbed/immobilized from DMEM and competitive inhibition by free peptides; assay type: cell-based; details: for Competitive inhibition of cell adhesion to pseudomatrix by free cell adhesion peptide: pseudomatrix 1-10 μg/ml in DMEM
Description: 200 mg each of hydrophobic binding-adsorptive polymer, MBAC, MAST or MMAC were dispersed into water, and 1 N NaOH solution was added little by little to dissolve them completely. 50 mg of WSC (1-ethyl-3-(3-dimethylamino propyl)carbodiimide, hydrochloride) was added to the resulting solution, and the reaction was conducted for 2 hours. Subsequently, 20 mg of peptide was added, and the reaction was continued with stirring for 2 hours at room temperature. After the reaction was finished, the reactant was subjected to dialysis with water to remove alkaline and low molecules, and then freeze-dried to prepare a pseudomatrix of interest.
as §2, with “μg/ml, and the resultant solution was” for “μg/ml,”, “Next,” for “Next, 100 μl of antibodies diluted with serum-free DMEM to the concentration of 4-10 μg/ml was poured into a well, incubated for 2-4 hours to let the antibodies bind to the peptides. Normal IgG was used for control groups. Antibodies were removed after the treatment,”, “seeded in the serum-free DMEM” for “seeded”
In the same manner as in Example 14, each pseudomatrix prepared in Example 13 to which cell adhesion peptide was bound (MAST-peptide) was adsorbed and immobilized on a 96-well, and T2 cells were seeded and cultured thereon.

[5] = tested on: alveolar type II epithelial cells (T2 cells); assay: Inhibition of T2 cell adhesion to immobilized pseudomatrices by heparin treatment; assay type: cell-based; details: Nle used instead of Met
Description: Pseudomatrices prepared in Example 13 to which each cell adhesion peptide was bound (MBAC-peptide) was diluted in DMEM medium to the concentration of 1-10 μg/ml, poured into 96-wells by 100 μl each, and left still overnight in a CO2 incubator to be adsorbed and immobilized on the wells. Non-adsorbed MBAC-peptide was removed by rinsing well with DMEM medium. Next, 100 μl of DMEM in which 1 mg/ml of heparin was dissolved was poured into the wells, incubated for 2 hours to allow heparin to bind to the peptides. Control groups were treated with DMEM only. Heparin was removed after the treatment, and T2 cells suspended at the concentration of 6×10^5 cells/ml were seeded by 100 μl each. After 1-day serum-free culture, T2 cells were fixed with 100 μl of methanol for 5 minutes, and stained with 50 μl of 0.4% crystal violet for 30 minutes. Excessive staining was washed with water, and the number of adhering cells was counted based on the absorbance of cytoplasm (A595).

[6] = target: adhesion receptor present on the cell surface of T2 cells (not named); assay: T2 cell adhesion to immobilized peptides, competitive inhibition by free peptides (FIGS. 8 and 9)
[7] = target: adhesion receptor present on the cell surface of T2 cells (not named); assay: T2 cell adhesion to FIB-1 and the peptide co-immobilized on MMAC-coated wells, inhibition by free FIB-1 (FIG. 9)
[8] = target: integrin on T2 cells (integrin α5β1); assay: reference of the ratio; T2 cell adhesion to immobilized peptides (FIGS. 8 and 9)
[9] = target: adhesion receptor present on the cell surface of T2 cells (not named); assay: cell-based or functional assay
[10] = target: syndecan present on the cell surface of T2 cells (alveolar type II epithelial cells); assay: T2 cell adhesion to FIB-1 and AG73 co-immobilized on MMAC-coated wells, inhibition by free FIB-1 (FIG. 9)
[11] = target: syndecan present on the cell surface of T2 cells (alveolar type II epithelial cells); assay: T2 cell adhesion to immobilized peptides, competitive inhibition by free peptides (FIGS. 8 and 9)

Molecule: MAST-FIB-1: pseudomatrix: MAST polymer reacted with FIB-1 peptide (YAVTGRGDSPAS)
Competitive inhibition of cell adhesion by free peptide ([1]; 50% ethanol air-dried pseudomatrix, 0.25 mg/ml free AG73 or FIB-1): worked more effectively in accordance with the decrease in the amount of immobilized FIB-1
Adhesion of T2 cells to pseudomatrix compared with coated FN [1]: similarly to the case where FN was coated
Inhibition of cell adhesion by anti-FIB-1 polyclonal antibody [2]: specifically inhibited by the antibody
Inhibition of cell adhesion by anti-FIB-1 antibody [3]: equally inhibited
Degree of inhibition of cell adhesion by the antibody ([3]; immobilized at 2.5-10 μg/ml): low
Cell adhesion ability of immobilized pseudomatrix compared with directly coated FN ([4]; 1-10 μg/ml in DMEM, 1-day serum-free culture, excluding 1 μg/ml of MBAC-AG73): the same level of cell adhesion ability as in the case where FN was directly coated
Competitive inhibition of cell adhesion to pseudomatrix by free cell adhesion peptide [4]: competitively inhibited by the free cell adhesion peptide, the degree is lower than the case of MBAC-peptide

Molecule: MBAC-A4G82X: pseudomatrix: MBAC polymer reacted with A4G82X peptide (TLFLAHGRLVF[Nle]; also: peptide reacted with MBAC polymer (pseudomatrix))
Cell adhesion ability of Nle pseudomatrix compared with immobilized Met peptide [5]: the same level of cell adhesion ability
Competitive inhibition of cell adhesion to pseudomatrix by free cell adhesion peptide [4]: inhibited by free A4G82 peptide

Molecule: MBAC-AG81.2X: pseudomatrix: MBAC polymer reacted with AG81.2X peptide (VKTEYIKRKAF[Nle]; also: peptide reacted with MBAC polymer (pseudomatrix))
Cell adhesion ability of immobilized pseudomatrix compared with coated FN [3]: the same level of cell adhesion ability as in the case where FN was coated
Inhibition of cell adhesion by treatment with antibodies for the peptides [3]: specifically inhibited
Cell adhesion ability of Nle pseudomatrix compared with immobilized Met peptide [5]: the same level of cell adhesion ability

Molecule: MBAC-FIB-1: pseudomatrix: MBAC polymer reacted with FIB-1 peptide (YAVTGRGDSPAS)
Adhesion of T2 cells to pseudomatrix compared with coated FN [1]: similarly to the case where FN was coated
Inhibition of cell adhesion by anti-FIB-1 polyclonal antibody [2]: specifically inhibited by the antibody
Cell adhesion ability of immobilized pseudomatrix compared with coated FN [3]: the same level of cell adhesion ability as in the case where FN was coated
Inhibition of cell adhesion by treatment with antibodies for the peptides [3]: specifically inhibited
Inhibition of cell adhesion by anti-FIB-1 antibody [3]: equally inhibited
Competitive inhibition of cell adhesion to pseudomatrix by free cell adhesion peptide [4]: competitively inhibited

Molecule: polymer-A5G73X: pseudomatrix: polymer (MBAC in FIG. 14) reacted with A5G73X peptide (RNRLHLS[Nle]LVRP; also: peptide reacted with MBAC polymer (pseudomatrix))
Cell adhesion ability of Nle pseudomatrix compared with immobilized Met peptide [5]: the same level of cell adhesion ability

Molecule: polymer-AG76.8X: pseudomatrix: polymer (MBAC in FIG. 14) reacted with AG76.8X peptide (TLQLQEGRLHF[Nle]; also: peptide reacted with MBAC polymer (pseudomatrix))
Cell adhesion ability of Nle pseudomatrix compared with immobilized Met peptide [5]: the same level of cell adhesion ability

Binding strength to T2 cells, Ratio to FIB-1 (fold (ratio to FIB-1)) [6]: < 1
mixing ratio at the transitional midpoint (peptide to FIB-1) [7]: 1
Molecule: GPLPSYLQFVGI [A5G71 (Gly-Pro-Leu-Pro-Ser-Tyr-Leu-Gln-Phe-Val-Gly-Ile)]

Binding strength to T2 cells, Ratio to FIB-1 (fold (ratio to FIB-1)) [8]: 1
Molecule: YAVTGRGDSPAS [FIB-1 (Tyr-Ala-Val-Thr-Gly-Arg-Gly-Asp-Ser-Pro-Ala-Ser)]

competitive inhibition of T2 cell adhesion to immobilized MAST-GRGDSP by free GRGDSP peptide [9]: 4 mg/mL
competitive inhibition of T2 cell adhesion to immobilized MMAC-GRGDSP by free GRGDSP peptide [9]: 1 to 4 mg/mL
Molecule: GRGDSP [GRGDSP (Gly-Arg-Gly-Asp-Ser-Pro)]

mixing ratio at the transitional midpoint (peptide to FIB-1) [10]: 0.01
Binding strength to T2 cells, Ratio to FIB-1 (fold (ratio to FIB-1)) [11]: 100
Molecule: RKRLQVQLSIRT [AG73 (Arg-Lys-Arg-Leu-Gln-Val-Gln-Leu-Ser-Ile-Arg-Thr)]
